Test results as given in US20050256132A1, “Use of ER selective NF-kB inhibitors for the treatment of sepsis” (priority 2003, published 2005).
Where two headings read alike, the source gives them in different places.

Columns and labels:
CK = experiment: Creatine kinase assay in ERα infected HAECT-1 cells (Table 2); assay type: cell-based, human
Description: (§1) T-175 flasks of 100% confluent HAECT-1 cells (immortalized human aortic endothelial cells) were washed with 8 ml of HBSS (HEPES buffered saline solution) and infected for fours hours with 6 ml of a 1:10 dilution of Ad5-wt-hERα virus (an adenovirus transfection vector that mediates CMV promoter driven expression of human ERα) in phenol red free Endothelial Cell Basal medium (Clonetics, San Diego, Calif., Catalog # CC-3129) containing 0.25% bovine serum albumin (EDM-BSA). After four hours, cells were washed with EDM-BSA and incubated overnight in the same medium. Following overnight incubation, cells were washed with EDM-BSA and infected for 2 hours with 6 ml of a 1:10 dilution of Ad5-3x(NFκB).Luc virus (Adenovirus luciferase expression vector driven by three repeats of the MHC NFκb sites 5′ to the thymidine kinase promoter) in EDM-BSA. After two hours, cells were washed and incubated at 34° C. for one hour. Cells were then washed, trypsinized, counted, and resuspended in 95% FBS/5% dimethylsulfoxide at a concentration of […], frozen as 1 or 5 ml aliquots in cryo-vials and stored at −150° C. Control (no ER infection) cells were processed as above without Ad5-wt-hERα virus infection.
(§2) ERα infected HAECT-1 cells or control cells were thawed, diluted 42× in warm EBM-BSA, plated into 96-well plates at 0.1 ml/well and incubated for 4 hours at 34° C. Test compounds were added to the cells at 2× stocks in EBM-BSA containing 2 ng/ml IL-1β Ad6-IL-6(1250 bp).Luc virus and plates were returned to the incubator (34° C.). After […], cells were lysed with 50 μl of Promega Cell Culture Lysis reagenet for about 5 minutes at room temperature on a shaker. After lysing, 15 μl of lysate is transferred to luminometer plates for luciferase determination. Luciferase activity is evaluated using a Perkin Elmer Victor2 1420 multilabel counter. Creatine kinase was determined from the rate of increase in A340 following addition of 100 μl of CK assay reagent (Sigma catalog no. 47-10) to the remainder of the cell lysate.
(§3) For IC50 and EC50 calculations, mean IL-6, luciferase or CK values versus log10 of the compound concentration were fitted to a four parameter logistic equation. The IC50/EC50 value, ‘Hill slope,’ upper and lower limits of the curve were iteratively estimated.

ER/IL-6 = experiment: Endothelial Cell ER/IL-6 Assay, IL-6 promoter luciferase (Table 2); assay type: cell-based, human; conditions: for Emax: read-out: IL6 luc % Efficacy
Description: as §1, §2, §3

[1] = Homo sapiens, HAECT1, ERα infected HAECT-1 cells, IL-1β
[2] = ERα infected HAECT-1 cells, IL-1β
[3] = ERα infected HAECT-1 cells, IL-1β, read-out: IL6 luc IC50
[4] = Homo sapiens, HAECT1, ERα infected HAECT-1 cells, IL-1β, read-out: IL6 luc IC50

Structure (SMILES)	Emax (ER/IL-6; [1])	CK % Efficacy (CK)	IL6 luc % Efficacy (ER/IL-6; [2])	IC50 (ER/IL-6; [3])	IC50 (ER/IL-6; [4])	melting point	further results
COC[C@](C#N)(C(=O)OC)[C@H](c1cnc2ccccc2c1)c1ccccc1OC (relative stereo) [Example 165, Methyl (2S*,3R*)-2-cyano-2-(methoxymethyl)-3-(2-methoxyphenyl)-3-quinolin-3-ylpropanoate]	21%	–	–	–	–	–	Emax (CK; Homo sapiens, HAECT1, read-out: CK % Efficacy): -22%
COCC(C#N)(C(=O)OC)C(c1ccccc1OC)c1ccnc2ccccc12 (stereo not drawn) [Example 162, Methyl (RR,SS)-2-cyano-2-(methoxymethyl)-3-(2-methoxyphenyl)-3-quinolin-4-ylpropanoate]	–	−4%	126%	546 nM	–	–	–
COCCOC[C@@](C#N)(C(=O)NC(C)(C)C)[C@@H](c1ccccc1OC)c1cccc2ccccc12 [Example 169, (RR,SS)-N-(tert-Butyl)-2-cyano-2-[(2-methoxyethoxy)methyl]-3-(2-methoxyphenyl)-3-(1-naphthyl)propanamide]	–	−8%	97%	331 nM	–	–	–
COCC(C#N)(C(=O)N1CCN(C2CCCCC2)CC1)C(c1ccccc1OC)c1cccc2ccccc12 (stereo not drawn) [Example 209, (RR,SS)-3-(4-cyclohexylpiperazin-1-yl)-2-(methoxymethyl)-2-[(2-methoxyphenyl)(1-naphthyl)methyl]-3-oxopropanenitrile]	–	2%	116%	87 nM	–	–	–
COC[C@@](C#N)(C(=O)N1CCN(c2ncccn2)CC1)[C@@H](c1ccccc1OC)c1cccc2ccccc12 [Example 200, (RR,SS)-2-(methoxymethyl)-3-(2-methoxyphenyl)-3-(1-naphthyl)-2-[(4-pyrimidin-2-ylpiperazin-1-yl)carbonyl]propanenitrile]	–	13%	162%	157 nM	–	–	–
COCCOCC(C#N)(C(=O)N1CC=C(c2c[nH]c3ccccc23)CC1)C(c1ccccc1OC)c1cccc2ccccc12 (stereo not drawn) [Example 172, (RR,SS)-3-[4-(1H-indol-3-yl)-3,6-dihydropyridin-1(2H)-yl]-2-[(2-methoxyethoxy)methyl]-2-[(S*)-(2-methoxyphenyl)(1-naphthyl)methyl]-3-oxopropanenitrile]	–	−13%	149%	114 nM	–	–	–
COC(=O)[C@@](C)(C#N)[C@H](c1cnc2ccccc2c1)c1ccccc1OC [Example 163, Methyl (SS,RR)-2-cyano-3-(2-methoxyphenyl)-2-methyl-3-(quinolin-3-yl)propanoate]	–	−12%	−32%	2.95 nM	–	–	–
COC[C@@](C#N)(C(=O)N1CC=C(c2c[nH]c3ccccc23)CC1)[C@@H](c1ccccc1OC)c1cccc2ccccc12 [Example 226]	–	18%	115%	220 nM	–	–	EC50 (CK): 138 nM
COCC(C#N)(C(=O)N1CCN(c2cnccn2)CC1)C(c1ccccc1OC)c1cccc2ccccc12 (stereo not drawn) [Example 212, (RR,SS)-2-(methoxymethyl)-3-(2-methoxyphenyl)-3-(1-naphthyl)-2-[(4-pyrazin-2-ylpiperazin-1-yl)carbonyl]propanenitrile]	–	22%	113%	59 nM	–	–	EC50 (CK): 138 nM
COC[C@@](C#N)(C(=O)N1CCN(C2CCCCC2)CC1)[C@@H](c1ccccc1OC)c1cccc2ccccc12 [Example 222, (2R,3R)-3-(4-cyclohexylpiperazin-1-yl)-2-(methoxymethyl)-2-[(2-methoxyphenyl)(1-naphthyl)methyl]-3-oxopropanenitrile]	–	–	170%	304 nM	–	–	EC50 (CK): 33 nM
COc1ccccc1[C@@H](c1cccc2ccccc12)[C@@](C#N)(COCc1ccccc1)C(=O)N1CCN(c2cnccn2)CC1 [Example 220, (RR,SS)-2-[(benzyloxy)methyl]-3-(2-methoxyphenyl)-3-(1-naphthyl)-2-[(4-pyrazin-2-ylpiperazin-1-yl)carbonyl]propanenitrile]	–	6%	128%	344 nM	–	–	–
COc1ccccc1[C@H](c1cccc2ccccc12)[C@@](C)(C#N)C(=O)N1CC=C(c2c[nH]c3ccccc23)CC1 [Example 182, (2S)-3-[4-(1H-indol-3-yl)-3,6-dihydropyridin-1(2H)-yl]-2-[(s)-(2-methoxyphenyl)(1-naphthyl)methyl]-2-methyl-3-oxopropanenitrile]	74%	–	–	–	45 nM	229 to 231 °C	–
CCC(=O)C1(c2ccccc2)CCN(C(=O)[C@](C)(C#N)[C@H](c2ccccc2OC)c2cccc3ccccc23)CC1 [Example 194, (2S,3S)-3-(2-methoxyphenyl)-2-methyl-3-(1-naphthyl)-2-[(4-phenyl-4-propionylpiperidin-1-yl)carbonyl]propanenitrile]	150%	–	–	–	132 nM	126 to 128 °C	–
COC[C@](C#N)(C(=O)N1CCN(c2ncccn2)CC1)[C@H](c1ccccc1OC)c1cccc2ccccc12 [Example 210, (2S,3S)-2-(methoxymethyl)-3-(2-methoxyphenyl)-3-(1-naphthyl)-2-[(4-pyrimidin-2-ylpiperazin-1-yl)carbonyl]propanenitrile]	132%	–	–	–	16 nM	140 °C	–
COC[C@](C#N)(C(=O)OC(C)(C)C)[C@H](c1ccccc1OC)c1cccc2ccccc12 (relative stereo) [Example 149, tert-Butyl (2S*,3S*)-2-cyano-2-(methoxymethyl)-3-(2-methoxyphenyl)-3-(1-naphthyl)propanoate]	102%	–	–	–	18 nM	163 to 165.3 °C	–
COc1ccccc1C(c1cccc2ccccc12)C(C#N)(COCc1ccccc1)C(=O)N1CCN(CCN2CCOCC2)CC1 (stereo not drawn) [Example 208, 2-[(benzyloxy)methyl]-3-(2-methoxyphenyl)-2-{[4-(2-morpholin-4-ylethyl)piperazin-1-yl]carbonyl}-3-(1-naphthyl)propanenitrile]	50%	–	–	–	13 nM	162 °C	–
COc1ccccc1[C@H](c1cccc2ccccc12)[C@@](C)(C#N)C(=O)N1CCN(c2cccc(C(F)(F)F)c2)CC1 [Example 136, (2S,3S)-3-(2-methoxyphenyl)-2-methyl-3-(1-naphthyl)-2-({4-[3-(trifluoromethyl)phenyl]piperazin-1-yl}carbonyl)propanenitrile]	142%	–	–	–	63 nM	158 to 162 °C	–
COc1ccccc1[C@H](c1cccc2ccccc12)[C@@](C)(C#N)C(=O)N1CCC(=O)CC1 [Example 191, (2S,3S)-3-(2-methoxyphenyl)-2-methyl-3-(1-naphthyl)-2-[(4-oxopiperidin-1-yl)carbonyl]propanenitrile]	–	–	–	–	–	209 to 210 °C	IC50 (ER/IL-6; Homo sapiens, HAECT1, read-out: IL6 luc IC50): 586 nM
COc1ccccc1[C@H](c1cccc2ccccc12)[C@@](C)(C#N)C(=O)N1CCC(N2C(=O)CCc3ccccc32)CC1 [Example 134, (2S,3S)-3-(2-methoxyphenyl)-2-methyl-3-(1-naphthyl)-2-{[4-(2-oxo-3,4-dihydroquinolin-1(2H)-yl)piperidin-1-yl]carbonyl}propanenitrile]	85%	–	–	–	612 nM	265 to 267 °C	–
COc1ccccc1[C@H](c1cccc2ccccc12)[C@@](C)(C#N)C(=O)N1CCN(CC(=O)N2CCCC2)CC1 [Example 201, (2S,3S)-3-(2-methoxyphenyl)-2-methyl-3-(1-naphthyl)-2-{[4-(2-oxo-2-pyrrolidin-1-ylethyl)piperazin-1-yl]carbonyl}propanenitrile]	45%	–	–	–	1090 nM	203 °C	–
COc1ccccc1[C@@H](c1cccc2ccccc12)[C@](C#N)(COCc1ccccc1)C(=O)N1CCN(CCCN(C)C)CC1 (relative stereo) [Example 205, (2S*)-2-[(benzyloxy)methyl]-3-{4-[3-(dimethylamino)propyl]piperazin-1-yl}-2-[(R*)-(2-methoxyphenyl)(1-naphthyl)methyl]-3-oxopropanenitrile]	58%	–	–	–	334 nM	192 to 193 °C	–
